Experiments:
Experiment in all cases: relative viability (nuclei count vs DMSO), 5 days (fraction); higher = more cells survive
[1] = compound: C1CCC(CC1)N(CCNCCC2=C3C(=C(C=C2)O)NC(=O)CO3)C(=O)CCNCCC4=CC(=C(C=C4)Cl)Cl [AZ505] + CC(=O)c1c(C)c2cnc(Nc3ccc(N4CCNCC4)cn3)nc2n(C2CCCC2)c1=O [Palbociclib] (partner 0.5 µM)
Outline: (§1)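 Relative viability was taken as the ratio of nuclei in treated wells to nuclei in vehicle wells. Lung cancer cell lines in 1536-well plates received compounds by pin tool one day after seeding, either one drug alone or a fixed anchor-drug dose plus five library-drug doses (not always all listed) in √10 steps. Nuclei were counted on 4× images after 5 days of treatment, and values are medians of duplicate plates.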

[2] = compound: C1CCC(CC1)N(CCNCCC2=C3C(=C(C=C2)O)NC(=O)CO3)C(=O)CCNCCC4=CC(=C(C=C4)Cl)Cl [AZ505] + CC1(C)CCC(c2ccc(Cl)cc2)=C(CN2CCN(c3ccc(C(=O)NS(=O)(=O)c4ccc(N[C@H](CCN5CCOCC5)CSc5ccccc5)c(S(=O)(=O)C(F)(F)F)c4)cc3)CC2)C1 [Navitoclax] (partner 0.5 µM)
Outline: as §1

[3] = compound: C1CCC(CC1)N(CCNCCC2=C3C(=C(C=C2)O)NC(=O)CO3)C(=O)CCNCCC4=CC(=C(C=C4)Cl)Cl [AZ505] + C[C@]1(O)C[C@@H](c2nc(-c3ccc4ccc(-c5ccccc5)nc4c3)c3c(N)nccn32)C1 [Linsitinib] (partner 1 µM)
Outline: as §1

[4] = compound: C1CCC(CC1)N(CCNCCC2=C3C(=C(C=C2)O)NC(=O)CO3)C(=O)CCNCCC4=CC(=C(C=C4)Cl)Cl [AZ505] + CC(=O)Nc1cccc(-n2c(=O)n(C3CC3)c(=O)c3c(Nc4ccc(I)cc4F)n(C)c(=O)c(C)c32)c1 [Trametinib] (partner 0.02 µM)
Outline: as §1

| Cell Line | relative viability ([1]; first compound 0.08 µM) | relative viability ([1]; first compound 0.253 µM) | relative viability ([1]; first compound 0.8 µM) | relative viability ([1]; first compound 2.53 µM) | relative viability ([1]; first compound 8 µM) | relative viability ([2]; first compound 0.08 µM) | relative viability ([2]; first compound 0.253 µM) | relative viability ([2]; first compound 0.8 µM) | relative viability ([2]; first compound 2.53 µM) | relative viability ([2]; first compound 8 µM) | relative viability ([3]; first compound 0.08 µM) | relative viability ([3]; first compound 0.253 µM) | relative viability ([3]; first compound 0.8 µM) | relative viability ([3]; first compound 2.53 µM) | relative viability ([3]; first compound 8 µM) | relative viability ([4]; first compound 0.08 µM) | relative viability ([4]; first compound 0.253 µM) | relative viability ([4]; first compound 0.8 µM) | relative viability ([4]; first compound 2.53 µM) | relative viability ([4]; first compound 8 µM) |
| --- | --- | --- | --- | --- | --- | --- | --- | --- | --- | --- | --- | --- | --- | --- | --- | --- | --- | --- | --- | --- |
| NCI-H2023 | 0.368 | 0.405 | 0.345 | 0.365 | 0.345 | 0.958 | 0.945 | 0.997 | 1.2 | 0.959 | 0.685 | 0.626 | 0.669 | 0.814 | 0.552 | 0.576 | 0.548 | 0.525 | 0.682 | 0.569 |
| LC-2-ad | 0.458 | 0.479 | 0.45 | 0.499 | 0.511 | 0.285 | 0.594 | 0.528 | 0.491 | 0.54 | 0.819 | 0.901 | 0.844 | 0.883 | 0.845 | 0.844 | 0.885 | 0.894 | 0.889 | 0.947 |
| NCI-H1703 |  |  |  |  |  | 1.05 | 1.36 | 1.32 | 1.31 | 1.55 | 0.635 | 0.588 | 1.17 | 0.997 | 0.853 |  |  |  |  |  |
| NCI-H1437 | 0.309 | 0.33 | 0.314 | 0.335 | 0.301 | 1.03 | 1.14 | 1.06 | 1.07 | 1.08 | 1.02 | 1.15 | 1.08 | 1.08 | 1.03 | 0.504 | 0.472 | 0.473 | 0.662 | 0.568 |
| SW 1573 | 0.342 | 0.393 | 0.389 | 0.441 | 0.4 | 0.893 | 1.03 | 1.05 | 1.09 | 0.91 | 0.666 | 0.828 | 0.849 | 0.872 | 0.829 | 0.536 | 0.657 | 0.515 | 0.474 | 0.543 |
| Calu-6 |  |  |  |  |  | 0.778 | 0.818 | 0.799 | 0.897 | 0.937 | 0.872 | 0.929 | 0.851 | 0.92 | 0.956 |  |  |  |  |  |
| NCI-H1650 | 0.34 | 0.412 | 0.278 | 0.35 | 0.317 | 1.21 | 1.34 | 1.25 | 1.15 | 1.14 |  |  |  |  |  | 0.48 | 0.686 | 0.71 | 0.556 | 0.626 |
| EBC-1 |  |  |  |  |  | 0.353 | 0.442 | 0.405 | 0.435 | 0.431 | 0.87 | 0.833 | 1.01 | 0.841 | 0.896 |  |  |  |  |  |
| NCI-H1648 |  | 0.264 | 0.305 | 0.284 | 0.27 |  |  |  |  |  |  |  |  |  |  |  | 0.463 | 0.528 | 0.576 | 0.497 |
| NCI-H522 | 0.91 | 0.946 | 0.891 | 1.04 | 1.16 |  |  |  |  |  |  |  |  |  |  | 0.71 | 0.726 | 0.945 | 0.842 | 0.8 |
| NCI-H1563 |  |  |  |  |  |  |  |  |  |  | 1.24 | 1.32 | 1.13 | 1.29 | 1.15 |  |  |  |  |  |
| NCI-H1299 |  |  |  |  |  | 1.02 | 0.991 | 0.974 | 1.02 | 1 | 0.913 | 0.942 | 0.965 | 0.903 | 0.922 |  |  |  |  |  |
| NCI-H358 | 0.122 | 0.156 | 0.153 | 0.139 | 0.151 |  |  |  |  |  | 0.733 | 0.689 | 0.689 | 0.752 | 0.669 | 0.113 | 0.136 | 0.112 | 0.119 | 0.13 |
| NCI-H650 | 0.279 | 0.377 | 0.322 | 0.395 | 0.309 |  |  |  |  |  | 0.847 | 0.739 | 0.897 | 1.15 | 0.921 | 0.98 | 0.841 | 0.924 | 0.893 | 1.15 |
| NCI-H661 | 0.404 | 0.433 | 0.402 | 0.422 | 0.372 |  |  |  |  |  | 0.583 | 0.567 | 0.544 | 0.491 | 0.646 | 0.603 | 0.596 | 0.537 | 0.577 | 0.541 |
| NCI-H2342 | 0.472 | 0.509 | 0.575 | 0.549 | 0.505 |  |  |  |  |  |  |  |  |  |  | 0.668 | 0.789 | 1.01 | 0.752 | 1.01 |
| A549 |  |  |  |  |  | 1.2 | 1.23 | 1.14 | 1.2 | 1.32 | 0.452 | 0.503 | 0.622 | 0.565 | 0.562 |  |  |  |  |  |
| SW 900 | 0.542 | 0.505 | 0.471 | 0.509 | 0.542 |  |  |  |  |  |  |  |  |  |  | 0.554 | 0.846 | 0.682 | 0.72 | 0.813 |
| IA-LM |  |  |  |  |  | 0.622 | 0.943 | 0.703 | 0.779 | 0.872 | 0.497 | 0.572 | 0.701 | 0.597 | 0.643 |  |  |  |  |  |
| ChaGo-K-1 | 0.823 | 0.999 | 1 | 0.92 | 0.91 | 1.02 | 0.856 | 1.04 | 1.14 | 1.07 |  |  |  |  |  | 0.838 | 0.918 | 0.871 | 0.846 | 0.91 |
| ABC-1 | 0.469 |  | 0.686 | 0.661 | 0.517 |  |  |  |  |  | 0.636 | 0.889 | 0.935 | 0.901 | 0.697 |  |  |  |  |  |

From the supplement of paper PMC10307832
